#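 Step 1: Grow cells in 96-well plates. Step 2: Expose to compound for 48 hours at 5 concentrations. Step 3: Interpolate endpoints linearly; if unreached, use highest concentration. At the GI50, growth is halved. TGI: total growth inhibition.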
# How the values were obtained:
# Experiment in all cases: NCI anticancer screen, dose series, 48 h
# MDA-N = tested on: MDA-N
# SK-MEL-28 melanoma = tested on: SK-MEL-28 melanoma
# IGROV1 ovarian = tested on: IGROV1 ovarian
# A498 renal = tested on: A498 renal
# HL-60(TB) leukemia = tested on: HL-60(TB) leukemia
# NCI/ADR-RES ovarian = tested on: NCI/ADR-RES ovarian
# MDA-MB-231 breast = tested on: MDA-MB-231 breast
# 786-0 renal = tested on: 786-0 renal
# NCI-H522 lung = tested on: NCI-H522 lung
# DMS 114 small cell lung = tested on: DMS 114 small cell lung
# SNB-78 CNS = tested on: SNB-78 CNS
# HOP-18 NSCLC = tested on: HOP-18 NSCLC
# M19-MEL melanoma = tested on: M19-MEL melanoma
Compound,TGI (MDA-N) [µM],TGI (SK-MEL-28 melanoma) [µM],TGI (IGROV1 ovarian) [µM],TGI (A498 renal) [µM],TGI (HL-60(TB) leukemia) [µM],TGI (NCI/ADR-RES ovarian) [µM],TGI (MDA-MB-231 breast) [µM],TGI (786-0 renal) [µM],TGI (NCI-H522 lung) [µM],GI50 (NCI-H522 lung) [µM],GI50 (SK-MEL-28 melanoma) [µM],GI50 (IGROV1 ovarian) [µM],GI50 (A498 renal) [µM],GI50 (NCI/ADR-RES ovarian) [µM],GI50 (MDA-MB-231 breast) [µM],TGI (DMS 114 small cell lung) [µM],TGI (SNB-78 CNS) [µM],TGI (HOP-18 NSCLC) [µM],TGI (M19-MEL melanoma) [µM],GI50 (HL-60(TB) leukemia) [µM]
CCOC(=O)C1(C(=O)OCC)Nc2cccnc2N(C)N1,35.4,93.8,42.1,52.4,58,43.8,40.4,36,,,,,,,,,,,,
CNC(=O)OC(C)CN1c2ccccc2Sc2ccc(Cl)cc21 (stereo not drawn),> 10,> 10,> 10,> 10,> 10,> 10,> 10,,> 10,,,,,,,,,,,
C[C@]12CC[C@@H]3c4ccc(OP(=O)(O)O)cc4CC[C@H]3[C@@H]1CCC2=O,> 100,> 100,> 100,> 100,> 100,> 100,> 100,> 100,> 100,,,,,,,,,,,
O=C(CCCCCCC(=O)Nc1ccc(N(CCCl)CCCl)cc1)NO,,16.3,21.2,13.1,,> 100,52.4,,2.03,0.474,3.35,2.51,3.11,5.4,6.99,,,,,
COc1cc(C2C(C(=O)O)=C(CO)Oc3cc4c(cc32)OCO4)cc(OC)c1O (stereo not drawn),,> 100,> 100,,> 100,,,,,,,,,,,> 100,> 100,> 100,,
CCCc1[nH]c(SCCCCCCCCSc2nc(-c3ccc(F)cc3)c(CCC)[nH]2)nc1-c1ccc(F)cc1,,> 100,> 100,,> 100,,,,,,,,,,,> 100,> 100,> 100,> 100,
ONc1ncnc2nc[nH]c12,,> 100,> 100,,> 100,,,> 100,> 100,,,,,,,> 100,,,> 100,
N=c1c2c(C(N)=O)cn(C3OC(CO)C(O)C3O)c2ncn1O (stereo not drawn),,2.3,> 100,,0.659,0.447,,1.08,> 20.4,,,,,,,,,,,0.191
Cc1cccc2nc3c(C(=O)NCCN(C)C)cccc3cc12,,3.62,7.11,3.48,3.37,6.23,,,,,,,,,,3.37,12.6,6.64,4.42,
O=S(=O)(O)c1ccc2cccc(N=Nc3c(O)ccc4ccccc34)c2c1,> 100,,> 100,> 100,> 100,> 100,> 100,> 100,> 100,,,,,,,,,,,
CCOC(=O)c1nc2ccc(Cl)cc2c2c1Cc1ccccc1-2,,> 100,> 100,,,,,> 100,> 100,,,,,,,,> 100,> 100,> 100,
CN(C)CC(=O)Nc1ccc(Cn2nnc3c2C(=O)c2nnn(Cc4ccc(NC(=O)CN(C)C)cc4)c2C3=O)cc1,,,,2.29,0.5,> 100,,,,,,,1.07,> 100,,,,,,0.074
CC1SC(c2ccccc2)N(CCc2cccs2)C1=O (stereo not drawn),,17.9,74.4,14.2,8.67,21.1,16.1,,8.76,1.89,4.96,4.72,2.63,3.12,3.3,,,,,2.85
CCOC(=O)N(Cc1cccs1)c1cc(OC)c(OC)c(OC)c1,90.8,> 100,> 100,> 100,> 100,29.2,> 100,> 100,> 100,,,,,,,,,,,
COc1ccc(/C(=C2/O[C@@H]([C@H]3COC(C)(C)O3)[C@H]3OC(C)(C)O[C@@H]23)c2cc(OC)c(OC)c(OC)c2)cc1O,,> 100,> 100,97.4,56.8,8.85,50.1,,7.54,2.95,10.6,45.1,32.1,3.11,9.71,,,,,6.48
CCS(=O)(=O)Nc1ccc(Nc2c3ccccc3nc3ccccc23)c(OC)c1,,15.4,22.4,2.28,0.13,20.6,,,16.1,,,,,,,5.53,18.4,7.92,16.6,
Cc1nc(N)nc(N)c1-c1ccc(Cl)c(Cl)c1,> 100,47.1,> 100,> 80.6,> 88.1,> 100,> 100,> 100,34.8,,,,,,,> 100,> 100,> 100,> 100,
CCN(CC)CC(C)Nc1ccc([N+](=O)[O-])c2sc3ccccc3c(=O)c12 (stereo not drawn),,4.56,4.18,10.5,11.7,> 58.5,9.09,,3.91,1.45,1.95,1.08,1.49,2.65,2.16,,,,,2.82
CCSCCC(N)C(=O)O (stereo not drawn),> 100,> 100,> 100,> 100,> 100,> 100,> 100,> 100,> 100,,,,,,,,,,,
CN1CC[C@@]2(c3cccc(O)c3)CC(=O)/C(=C/c3ccccc3)[C@H]1C2,16.4,29,36.2,30.4,7.73,24.5,23.6,25,20,,,,,,,,,,,
Cn1c(=S)[nH]c2sc3c(c2c1=O)CCSC3,> 100,,> 100,> 100,43.3,> 100,> 100,> 100,> 100,,,,,,,,,,,
COc1ccc2nc(-c3ccc(-c4noc(-c5cc(OC)c(OC)c(OC)c5)n4)cc3)[nH]c2c1,,27,69.1,> 100,81.7,23.6,13.9,,45.3,6.89,9.59,26.3,28,3.32,2.65,,,,,20.2

# — PubChem BioAssay (NCI)
